Cross-Reactivity and IC50 data for 13 compounds are collected here from PMC8307831, “Preparation of Monoclonal Antibody and Development of Indirect Competitive Enzyme-Linked Immunosorbent Assay and Fluorescence-Linked Immunosorbent Assay for Detecting 3-Amino-5-methylmorpholino-2-oxazolidinone (AMOZ) in Edible Animal Tissue” (Molecules, 2021).

In brackets after ≈: the same amount, converted by molar mass.

The subject of test [1] is mAb 5C10/3A8. The experiment in a line: indirect competitive ELISA (ic-ELISA) with CPAMOZ-OVA coating antigen. Format: binding, mouse. The settings on record: for Cross-Reactivity: (IC50 of 2-NP-AMOZ / IC50 of compound tested) x 100%, 2-NP-AMOZ set to 100%; for IC50: mAb 5C10/3A8, competition with coating antigen CPAMOZ-OVA. As to the method: To carry out 2-NP-AMOZ ic-ELISA, 96-well plates were first coated with 100 μL of CPAMOZ-OVA in 50 mM of carbonate buffer solution (pH = 9.6) overnight at 4 °C. […] The plates were washed again three times, after which 50 μL of different concentrations of 2-NP-AMOZ analytes and 50 μL of the obtained mAb were added into each well, incubated at 37 °C for 1 h, and the plates were washed three times with the PBST. Subsequently, 100 μL of horseradish peroxidase-labeled goat anti-mouse IgG (1:10,000 dilution) was added to the wells and incubated at 37 °C for 1 h. This was followed by a washing step of three washes with PBST solution, after which 100 μL of substrate solution was added to each well and incubated for 15 min in darkness. The reaction was stopped by adding 50 μL/well of 2 M of H2SO4. The absorbance at 450 nm was measured on a Tecan Sunrise 2.5 microplate reader (SUNRISE, Austria). A calibration curve was constructed by plotting (B/B0) × 100% vs. log C, where B and B0 represent the absorbance of the analyte at the known concentrates (standards) and at zero concentration of the analyte, respectively.
The extent of cross-reactivity was evaluated by determining IC50 values using an ic-ELISA as described above. […] The concentration of the standard solutions of the compounds was set from 0.01 to 1000 ng/mL.
On the technique in general: In an ELISA, binding on a coated surface is turned into a signal by an enzyme label.

Test [2] deals with mAb 5C10/3A8. Briefly: QD-based fluorescence-linked immunosorbent assay (FLISA). It is filed as binding. As to conditions: 655 nm QDs-conjugated goat anti-mouse IgG. The protocol:
The procedures for FLISA and ic-ELISA were identical before the secondary antibody was added. More specifically, after washing with PBST for three times, 100 μL of 655 nm QDs-conjugated goat anti-mouse IgG (1:10,000 dilution) was added to each well and incubated at 37 °C for 45 min. After three washes with PBST, a SpectraMax M2e Microplate Reader (Molecular Devices, San Jose, CA, USA) was used to measure the fluorescence signals from samples with excitation/emission at 360/655 nm. The fluorescence intensities were identified as B0 and B for the control and testing sample. The standard curve was established by plotting the form (B/B0) 100% against the 2-NP-AMOZ concentration.

Another test deals with monoclonal antibodies. On the set-up: method as in not given. As to conditions: published mAb-based homologous ic-ELISAs and fluoroimmunoassay; range over the literature; ref not given; cited from earlier work.

The term IC50 denotes the concentration that gives 50% inhibition. For the compound `O=Cc1ccccc1[N+](=O)[O-]` [2-NBA, 2-nitrobenzaldehyde], in the test on mAb 5C10/3A8 [1], the Cross-Reactivity is given as under 0.01% and the IC50 was over 1 µg/mL.
Consider `O=C1CN(/N=C/c2ccccc2[N+](=O)[O-])C(=O)N1` [2-NP-AHD], for which, in the test with mAb 5C10/3A8 [1], the Cross-Reactivity is given as under 0.01% and the 50% inhibitory concentration (IC50) was over 1 µg/mL.
As for `O=C1OC(CN2CCOCC2)CN1/N=C/c1ccccc1[N+](=O)[O-]` (centres unmarked) [2-NP-AMOZ], in the test on mAb 5C10/3A8 [1], the Cross-Reactivity was 100%. The IC50 with mAb 5C10/3A8 [1] is 0.00011 µg/mL (≈ 0.000329 µM); in the test on mAb 5C10/3A8 [2], 0.09 ng/mL (≈ 0.000269 µM); in the test with monoclonal antibodies, 0.00014 to 0.0043 µg/mL.
Consider `O=C1OCCN1/N=C/c1ccccc1[N+](=O)[O-]` [2-NP-AOZ], for which, in the test with mAb 5C10/3A8 [1], the Cross-Reactivity is under 0.01% and the IC50 was over 1 µg/mL.
`O=Cc1ccc(C(=O)O)cc1` [4-CBA, 4-carboxybenzaldehyle]: in the test on mAb 5C10/3A8 [1], the Cross-Reactivity is given as under 0.01% and the IC50 is over 1 µg/mL.
For `NN1CC(=O)NC1=O` [AHD, 1-aminohydantoin], in the test on mAb 5C10/3A8 [1], the Cross-Reactivity was under 0.01% and the IC50 was over 1 µg/mL.
Take `NN1CC(CN2CCOCC2)OC1=O` (centres unmarked) [AMOZ, 3-amino-5-morpholinomethyl-2-oxazolidinone]: in the test on mAb 5C10/3A8 [1], the Cross-Reactivity was found to be 10.7% and the IC50 worked out at 0.00103 µg/mL (≈ 0.00512 µM). Besides, in the test on monoclonal antibodies, the IC50 is 0.00115 to 0.00533 µg/mL.
As for `NN1CCOC1=O` [AOZ, 3-amino-2-oxazolidinone], in the test with mAb 5C10/3A8 [1], the Cross-Reactivity is reported as under 0.01% and the IC50 was over 1 µg/mL.
In the same order, the values of `O=C(O)c1ccc(/C=N/N2CC(CN3CCOCC3)OC2=O)cc1` (centres unmarked) [CPAMOZ, carboxyphenyl AMOZ] are 122.2% and 9e-05 µg/mL (≈ 0.00027 µM).
Turning to `O=C1OC(CN2CCOCC2)CN1/N=C/c1ccc([N+](=O)[O-])o1` (centres unmarked) [Furaltadone, furaltadone], in the test with mAb 5C10/3A8 [1], the Cross-Reactivity amounted to 8.9% and the IC50 is 0.00124 µg/mL (≈ 0.00382 µM).
On to `O=C1CN(/N=C/c2ccc([N+](=O)[O-])o2)C(=O)N1` [Nitrofurantoin, nitrofurantoin], for which, in the test with mAb 5C10/3A8 [1], the Cross-Reactivity was under 0.01% and the 50% inhibitory concentration (IC50) was over 1 µg/mL.
On to `NC(=O)N/N=C/c1ccc([N+](=O)[O-])o1` [Nitrofurazone, nitrofurazone], for which, in the test on mAb 5C10/3A8 [1], the Cross-Reactivity was under 0.01% and the IC50 is over 1 µg/mL.
Take `NNC(N)=O` [SEM, semicarbazide]: in the test on mAb 5C10/3A8 [1], the Cross-Reactivity is on record as under 0.01% and the IC50 was over 1 µg/mL.
